The source of these data is patent US10538555B2, “Macrocyclic inhibitors of the PD-1/PD-L1 and CD80(B7-1)/PD-L1 protein/protein interactions” (BRISTOL-MYERS SQUIBB COMPANY, priority 2014, dated 2020).

Like-named read-outs stand apart in the source and are kept apart here. *1 amine or outer side, *2 acyl side, *3 side chain or, on linkers, in order; H or OH if unused. Where a SMILES comes first, the peptide text is derived from it. Bridges are numbered along the chain shown (N, C = ends). [ ]: non-standard residue; d: D form. ξ: configuration not given here. Trp(1-CH2COOH) = N[C@@H](Cc1cn(CC(=O)O)c2ccccc12)C(=O)O; Trp(βS-Me) = C[C@@H](c1c[nH]c2ccccc12)[C@H](N)C(=O)O; Phe(3,4,5-F3) = N[C@@H](Cc1cc(F)c(F)c(F)c1)C(=O)O; Phe(3,4-F2) = N[C@@H](Cc1ccc(F)c(F)c1)C(=O)O; NMePhe(4-F) = CN[C@@H](Cc1ccc(F)cc1)C(=O)O; dPro(4S-Me) = C[C@@H]1CN[C@@H](C(=O)O)C1; Phe(4-F) = N[C@@H](Cc1ccc(F)cc1)C(=O)O; d(cisHyp) = O=C(O)[C@H]1C[C@@H](O)CN1; Hyp = O=C(O)[C@@H]1C[C@@H](O)CN1; NMeF = CN[C@@H](Cc1ccccc1)C(=O)O; X1 = O=C([C@H]1COCCN1[*:1])[*:2]; dNMeF = CN[C@H](Cc1ccccc1)C(=O)O; dHyp = O=C(O)[C@H]1C[C@H](O)CN1; NMeNle = CCCC[C@H](NC)C(=O)O; dNle = CCCC[C@@H](N)C(=O)O; Pip = O=C(O)[C@@H]1CCCCN1; hSer = N[C@@H](CCO)C(=O)O; NMeA = CN[C@@H](C)C(=O)O; Orn = NCCC[C@H](N)C(=O)O; Dab = NCC[C@H](N)C(=O)O; Dap = NC[C@H](N)C(=O)O; ξC = NC(CS)C(=O)O

This experiment has as its target T1, Human PD-L1/PD-1 (Homo sapiens, UniProt Q9NZQ7).
T1 construct: TVMV protease cleavage site (C); made in house; host or cells: HEK293T cells
Put plainly: HTRF Human PD-L1/PD-1 binding assay (PD-1-Ig/PD-L1-His). The note with it: PD-L1-His 10 nM, PD-1-Ig 20 nM. The essentials:
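HTRF read-out (665/620 nm ratio) after 30 min equilibration with Eu-cryptate anti-Ig mAb (1 nM) and APC anti-His mAb (20 nM). Peptides preincubated 15 min with PD-L1-His (10 nM), then PD-1-Ig (20 nM) added for 15 min.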
(TR-FRET usually uses a lanthanide donor and a delayed reading to cut background.)

[1] abbreviates: class symbol, read-out: HTRF Human PD-L1/PD-1 Binding Assay IC50 Range.

T1 sequence (Q9NZQ7 with tags, fused parts or gaps): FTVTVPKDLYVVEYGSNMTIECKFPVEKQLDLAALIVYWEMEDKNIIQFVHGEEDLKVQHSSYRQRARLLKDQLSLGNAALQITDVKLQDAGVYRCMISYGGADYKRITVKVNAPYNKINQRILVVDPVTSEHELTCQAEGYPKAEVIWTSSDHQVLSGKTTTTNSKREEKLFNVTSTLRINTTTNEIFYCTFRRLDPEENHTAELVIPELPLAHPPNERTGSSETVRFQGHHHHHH

With `CCCC[C@H]1C(=O)N2C[C@@H](O)C[C@@H]2C(=O)N[C@@H](CC(=O)O)C(=O)N[C@@H](C(C)C)C(=O)N(C)[C@H](Cc2ccccc2)C(=O)N[C@@H](Cc2ccc(O)cc2)C(=O)N2CCC[C@@H]2C(=O)N[C@@H]([C@@H](C)c2c[nH]c3ccccc23)C(=O)N[C@@H](Cc2ccc(O)cc2)C(=O)N[C@@H](CC(C)C)C(=O)N[C@H](C(=O)NCC(N)=O)CSCC(=O)N[C@@H](Cc2cc(F)c(F)c(F)c2)C(=O)N(C)[C@@H](Cc2ccccc2)C(=O)N1C` [Example 10640] ({CH2CO}-[Phe(3,4,5-F3)][NMeF][NMeNle][dHyp]DV[dNMeF]Y[dP][Trp(βS-Me)]YLCG-NH2; thioether N-13), under setting [1], the IC50 was in the range of 10 to 99.9 nM. On the same count and under the same terms, the value for `CCCC[C@H]1NC(=O)[C@H](Cc2c[nH]c3ccccc23)NC(=O)[C@H](CO)NC(=O)[C@H](Cc2c[nH]c3ccccc23)NC(=O)[C@@H]2C[C@@H](O)CN2C(=O)[C@H](CC(C)C)NC(=O)[C@H](Cc2cnc[nH]2)NC(=O)[C@@H]2CCCN2C(=O)[C@H](CC(=O)O)NC(=O)[C@H](C)N(C)C(=O)[C@H](Cc2ccc(O)cc2)NC(=O)CSCC(C(=O)NCC(N)=O)NC(=O)[C@H](CCC(=O)O)NC(=O)[C@H](CCCC)N(C)C1=O` (some centres unmarked) [Example 10132] ({CH2CO}-Y[NMeA]DPHL[Hyp]WSW[dNle][NMeNle]E[ξC]G-NH2; thioether N-14) was 100 to 990 nM; that for `CCCC[C@H]1C(=O)N(C)[C@@H](CCCC)C(=O)N[C@@H](CCC(=O)O)C(=O)NC(C(=O)NCC(N)=O)CSCC(=O)N[C@@H](Cc2ccc(O)cc2)C(=O)N(C)[C@@H](C)C(=O)N[C@@H](CC(N)=O)C(=O)N2CCC[C@H]2C(=O)N[C@@H](Cc2c[nH]cn2)C(=O)N[C@@H](CC(N)=O)C(=O)N2C[C@H](O)C[C@H]2C(=O)N[C@@H](Cc2c[nH]c3ccccc23)C(=O)N[C@@H](CN)C(=O)N[C@@H](Cc2c[nH]c3ccccc23)C(=O)N1C` (some centres unmarked) [Example 9179] ({CH2CO}-Y[NMeA]NPHN[Hyp]W[Dap]W[NMeNle][NMeNle]E[ξC]G-NH2; thioether N-14) was 100 to 990 nM. Regarding `CCCC[C@H]1C(=O)N(C)[C@@H](CCCC)C(=O)N[C@@H](CC(=O)O)C(=O)N[C@H](C(=O)NCC(N)=O)CSCC(=O)N[C@@H](Cc2ccc(O)cc2)C(=O)N2CCCC[C@H]2C(=O)N[C@@H](CC(=O)O)C(=O)N2CCC[C@H]2C(=O)N[C@@H](Cc2cnc[nH]2)C(=O)N[C@@H](CCCCN)C(=O)N2C[C@H](O)C[C@H]2C(=O)N[C@@H](Cc2c[nH]c3ccccc23)C(=O)N[C@@H](CCCCN)C(=O)N[C@@H](Cc2cn(CC(=O)O)c3ccccc23)C(=O)N1C` [Example 1302] ({CH2CO}-Y[Pip]DPHK[Hyp]WK[Trp(1-CH2COOH)][NMeNle][NMeNle]DCG-NH2; thioether N-14), the IC50 under setting [1] fell in the range of 1 to 9.9 nM. On to `CCCC[C@H]1C(=O)N(C)[C@@H](CCCC)C(=O)N[C@@H](CCN)C(=O)N[C@H](C(=O)NCC(N)=O)CSCC(=O)N[C@@H](Cc2ccc(O)cc2)C(=O)N(C)[C@@H](C)C(=O)N[C@@H](CC(N)=O)C(=O)N2CCC[C@H]2C(=O)N[C@@H](Cc2cnc[nH]2)C(=O)N[C@@H](CCC(N)=O)C(=O)N2C[C@H](O)C[C@H]2C(=O)N[C@@H](Cc2c[nH]c3ccccc23)C(=O)N[C@@H](CCN)C(=O)N[C@@H](Cc2cn(CC(=O)O)c3ccccc23)C(=O)N1C` [Example 6293] ({CH2CO}-Y[NMeA]NPHQ[Hyp]W[Dab][Trp(1-CH2COOH)][NMeNle][NMeNle][Dab]CG-NH2; thioether N-14), for which the IC50 under setting [1] is 1 to 9.9 nM. On the same count and under the same terms, the value for `CCCC[C@H]1C(=O)N(C)[C@@H](CCCC)C(=O)N[C@@H](CCC(=O)O)C(=O)N[C@H](C(=O)NCC(N)=O)CSCC(=O)N[C@@H](Cc2ccc(O)cc2)C(=O)N2CCCC[C@H]2C(=O)N[C@@H](CC(N)=O)C(=O)N2CCC[C@H]2C(=O)N[C@@H](Cc2cnc[nH]2)C(=O)N[C@@H](CCC(=O)O)C(=O)N2C[C@H](O)C[C@H]2C(=O)N[C@@H](Cc2c[nH]c3ccccc23)C(=O)N[C@@H](CO)C(=O)N[C@@H](Cc2c[nH]c3ccccc23)C(=O)N1C` [Example 1252] ({CH2CO}-Y[Pip]NPHE[Hyp]WSW[NMeNle][NMeNle]ECG-NH2; thioether N-14) was 1 to 9.9 nM.

For the compound `CCCC[C@H]1C(=O)N2C[C@H](O)C[C@@H]2C(=O)N[C@@H](CC(=O)O)C(=O)N[C@@H](C(C)C)C(=O)N(C)[C@@H](Cc2ccccc2)C(=O)N[C@@H](CC(=O)O)C(=O)N2CCOC[C@@H]2C(=O)N[C@@H](Cc2c[nH]c3ccccc23)C(=O)N[C@@H](Cc2ccc(O)cc2)C(=O)N[C@@H](CCO)C(=O)N[C@H](C(=O)NCC(N)=O)CSCC(=O)N[C@@H](Cc2cc(F)c(F)c(F)c2)C(=O)N(C)[C@@H](Cc2ccccc2)C(=O)N1C` [Example 10157] ({CH2CO}-[Phe(3,4,5-F3)][NMeF][NMeNle][d(cisHyp)]DV[NMeF]D[X1]WY[hSer]CG-NH2; thioether N-13), the IC50 (read-out: HTRF Human PD-L1/PD-1 Binding Assay IC50) came to 4.1 nM. As to `CCCC[C@H]1C(=O)N(C)[C@@H](CCCC)C(=O)N[C@@H](CCC(=O)O)C(=O)N[C@H](C(=O)NCC(N)=O)CSCC(=O)N[C@@H](Cc2ccc(O)cc2)C(=O)N(C)[C@@H](C)C(=O)N[C@@H](CC(N)=O)C(=O)N2CCC[C@H]2C(=O)N[C@@H](CN)C(=O)N[C@@H](CCC(N)=O)C(=O)N2C[C@H](O)C[C@H]2C(=O)N[C@@H](Cc2c[nH]c3ccccc23)C(=O)N[C@@H](CCN)C(=O)N[C@@H](Cc2c[nH]c3ccccc23)C(=O)N1C` [Example 5237] ({CH2CO}-Y[NMeA]NP[Dap]Q[Hyp]W[Dab]W[NMeNle][NMeNle]ECG-NH2; thioether N-14), under setting [1], the IC50 is 1 to 9.9 nM. The same measure, in the same setting: the value for `CCCC[C@H]1C(=O)N(C)[C@@H](C)C(=O)N[C@@H](CCCNC(=N)N)C(=O)NC(C(=O)NCC(N)=O)CSCC(=O)N[C@@H](Cc2ccc(O)cc2)C(=O)N(C)[C@@H](C)C(=O)N[C@@H](CC(N)=O)C(=O)N2CCC[C@H]2C(=O)N[C@@H](CC(N)=O)C(=O)N[C@@H](CC(C)C)C(=O)N2C[C@H](O)C[C@H]2C(=O)N[C@@H](Cc2c[nH]c3ccccc23)C(=O)N[C@@H](CO)C(=O)N[C@@H](Cc2c[nH]c3ccccc23)C(=O)N1C` (some centres unmarked) [Example 9138] ({CH2CO}-Y[NMeA]NPNL[Hyp]WSW[NMeNle][NMeA]R[ξC]G-NH2; thioether N-14) was 1 to 9.9 nM; that for `CCCC[C@H]1C(=O)N(C)[C@@H](CCCC)C(=O)N[C@@H](CCC(=O)O)C(=O)N[C@H](C(=O)NCC(N)=O)CSCC(=O)N[C@@H](Cc2ccc(OC)cc2)C(=O)N(C)[C@@H](C)C(=O)N[C@@H](CC(=O)O)C(=O)N2CCC[C@H]2C(=O)N[C@@H](CN)C(=O)N[C@@H](CCCCN)C(=O)N2C[C@H](O)C[C@H]2C(=O)N[C@@H](Cc2c[nH]c3ccccc23)C(=O)N[C@@H](CCN)C(=O)N[C@@H](Cc2cn(CC(=O)O)c3ccccc23)C(=O)N1C` [Example 7148] ({CH2CO}-Y(Me)[NMeA]DP[Dap]K[Hyp]W[Dab][Trp(1-CH2COOH)][NMeNle][NMeNle]ECG-NH2; thioether N-14) was 1 to 9.9 nM. Take `CCCC[C@H]1C(=O)N2CCC[C@@H]2C(=O)N[C@@H](CC(=O)O)C(=O)N[C@@H](C(C)C)C(=O)N(C)[C@@H](Cc2ccc(F)cc2)C(=O)N[C@@H](CC(=O)O)C(=O)N2CCC[C@@H]2C(=O)N[C@@H](Cc2c[nH]c3ccccc23)C(=O)N[C@@H](Cc2ccc(O)cc2)C(=O)N[C@@H](CC(C)C)C(=O)N[C@H](C(=O)NCC(N)=O)CSCC(=O)N[C@@H](Cc2ccc(F)cc2)C(=O)N(C)[C@@H](Cc2ccccc2)C(=O)N1C` [Example 10110] ({CH2CO}-[Phe(4-F)][NMeF][NMeNle][dP]DV[NMePhe(4-F)]D[dP]WYLCG-NH2; thioether N-13): under setting [1], the IC50 lay within 1 to 9.9 nM. The same measure, in the same setting: in the case of `CCCC[C@H]1C(=O)N(C)[C@@H](CCCC)C(=O)N[C@@H](CCC(=O)O)C(=O)N[C@H](C(=O)NCC(N)=O)CSCC(=O)N[C@@H](Cc2ccc(OC)cc2)C(=O)N(C)[C@@H](C)C(=O)N[C@@H](CCN)C(=O)N2CCC[C@H]2C(=O)N[C@@H](CN)C(=O)N[C@@H](CCC(=O)O)C(=O)N2C[C@H](O)C[C@H]2C(=O)N[C@@H](Cc2c[nH]c3ccccc23)C(=O)N[C@@H](CCN)C(=O)N[C@@H](Cc2cn(CC(=O)O)c3ccccc23)C(=O)N1C` [Example 7140] ({CH2CO}-Y(Me)[NMeA][Dab]P[Dap]E[Hyp]W[Dab][Trp(1-CH2COOH)][NMeNle][NMeNle]ECG-NH2; thioether N-14) it was 1 to 9.9 nM; in that of `CCCC[C@H]1C(=O)N(C)[C@@H](CCCC)C(=O)N[C@@H](CN)C(=O)N[C@H](C(=O)NCC(N)=O)CSCC(=O)N[C@@H](Cc2ccc(O)cc2)C(=O)N2CCCC[C@H]2C(=O)N[C@@H](CC(N)=O)C(=O)N2CCC[C@H]2C(=O)N[C@@H](Cc2cnc[nH]2)C(=O)N[C@@H](CCC(N)=O)C(=O)N2C[C@H](O)C[C@H]2C(=O)N[C@@H](Cc2c[nH]c3ccccc23)C(=O)N[C@@H](CCN)C(=O)N[C@@H](Cc2cn(CC(=O)O)c3ccccc23)C(=O)N1C` [Example 1301] ({CH2CO}-Y[Pip]NPHQ[Hyp]W[Dab][Trp(1-CH2COOH)][NMeNle][NMeNle][Dap]CG-NH2; thioether N-14), 10 to 99.9 nM. The same measure, in the same setting: the value for `CCCC[C@H]1C(=O)N2C[C@@H](C)C[C@@H]2C(=O)N[C@@H](CC(=O)O)C(=O)N[C@@H](C(C)C)C(=O)N(C)[C@@H](Cc2ccccc2)C(=O)N[C@@H](Cc2ccc(OC)cc2)C(=O)N2C[C@@H](O)C[C@@H]2C(=O)N[C@@H](Cc2c[nH]c3ccccc23)C(=O)N[C@@H](Cc2ccc(O)cc2)C(=O)N[C@@H](CCCN)C(=O)N[C@H](C(=O)NCC(N)=O)CSCC(=O)N[C@@H](Cc2ccc(F)c(F)c2)C(=O)N(C)[C@@H](Cc2ccccc2)C(=O)N1C` [Example 9229] ({CH2CO}-[Phe(3,4-F2)][NMeF][NMeNle][dPro(4S-Me)]DV[NMeF]Y(Me)[dHyp]WY[Orn]CG-NH2; thioether N-13) was 1 to 9.9 nM.
